Several values for one entry are separate records, joined by “and”; a condition that tells them apart may be missing. Equal entries are not always repeated. Entries after “also recorded” stand apart in the source; their conditions may differ.
Assays:
[1] = system: human islet-derived 1.1B4 cells; experiment: Acute static incubation, insulin secretion by radioimmunoassay, 1.1B4 cells; assay type: cell-based; settings: for increase of insulin secretion: at 5.6 mmol/l glucose; for increase of the effect on raising glucose from 5.6 mmol/l to 11.1 mmol/l: 11.1 vs 5.6 mmol/l glucose
Method: (§1) Acute static incubations at 37° C. were performed using monolayers of insulin-secreting cells. […] Approximately 2.5×10^5 cells were then seeded in each well of 24-well multiplates (Iwaki Glass, Japan). […] The cells were incubated at 37° C. for 40 minutes, after which the buffer was removed and replaced with 0.5 ml KRBB test buffer. […] After 60 min incubation at 37° C., a 450 μl aliquot of KRBB test buffer was removed from each well into 2 ml polypropylene tube (Lip Plastics, England) and centrifuged at 900 rpm for 5 minutes at 4° C. The supernatant was then collected from each tube and 200 μl aliquots were then stored at −20° C. for subsequent insulin determination by radioimmunoassay.
(§2) Human insulin standards were prepared over a range of 2-fold serial dilutions from 5.0 ng/ml to 0.009 ng/ml using Human insulin standard (Sigma Chemical, UK). […] This antiserum was specificaly selected for high affinity with human insulin standard.
(§3) After a further 24 hours incubation at 4° C., 1 ml of a 5% (w/v) charcoal coated with 1:10 dextran T-70 in sodium phosphate buffer (40 mmol/1, pH 7.4) was added to each tube. […] Counts bound to antibody (average total counts minus counts bound to charcoal) are inversely proportional to the concentration of insulin in the standard or unknown sample. The unknown concentration was determined by means of the standard curve, constructed from the known […] insulin standard using a spline curve fitting algorithim.

[2] = system: human islet-derived 1.4E7 cells; experiment: Acute static incubation, insulin secretion by radioimmunoassay, 1.4E7 cells; assay type: cell-based
Method: as §1, §2, §3

[3] = system: human islet-derived 1.1E7 cells; experiment: Acute static incubation, insulin secretion by radioimmunoassay, 1.1E7 cells; assay type: cell-based; settings: for threshold glucose concentration for stimulation of insulin release in the presence of the agent: IBMX or 2 mmol/l 5-thioglucose included
Method: as §1, §2, §3

[4] = system: 1.1B4, 1.1E7, 1.4E7 and 1.2B4 cells; experiment: Acute static incubation, insulin secretion, statements pooled over all four cell lines; assay type: cell-based, human; settings: for insulin release at 11.1 mmol/l glucose: novel cells; for insulin release from the novel cell lines: each of the novel cell lines, glucose concentration not stated
Method: as §1, §2, §3

[5] = system: human islet-derived 1.2B4 cells; experiment: Acute static incubation, insulin secretion by radioimmunoassay, 1.2B4 cells; assay type: cell-based
Method: as §1, §2, §3

PANC-1 cells [6] = experiment: Glucose utilisation from [5-3H]glucose, PANC-1 cells; assay type: cell-based, human; settings: 2 mmol/l 5-thioglucose, this concentration = 16.7 mmol/l glucose
Method: (§4) Experiments were performed in specially designed glass cups suspended inside standard counting vials with an airtight stopper. For each sample, 2.0×10^5 cells were incubated in the presence of either 1.1, 5.6, 11.1 or 16.7 mmol/l glucose and D-[5 ^3H] glucose to give a final concentration of 0.25 μCi (40 μl total volume) Effects of 2 mmol/l 5-thioglucose were also tested in 1.1 and 16.7 mmol/l glucose. Blanks were set up where the cells were omitted and replaced with KRBB to give a final concentration of either 1.1 or 16.7 mmol/l glucose. Standards consisted of D-[5^−3H] glucose (0.5 μCi) added to the base of the counting vial. The glass vials were sealed with the rubber caps and placed at 37° C. for one hour. The reaction was stopped by the addition of 0.2M HCl (50 μl) injected through the rubber cap directly into the centre well using a Hamilton syringe. Sterile deionized water was added (500 μl) through the sealed lid into the base of the vial. Vials were then placed at 37° C. for a 15 hour. The rubber caps and centre wells were removed and 5 ml of liquid scintillation fluid (BDH) added to each vial on top of the filter paper. Vials were capped and ^3H-glucose labelled radioactivity determined by scintillation counter.

1.4E7 cells [7] = experiment: Glucose utilisation from [5-3H]glucose, 1.4E7 cells; assay type: cell-based, human; settings: 2 mmol/l 5-thioglucose, tested at 1.1 and 16.7 mmol/l glucose
Method: as §4

1.1E7 cells [8] = experiment: Glucose utilisation from [5-3H]glucose, 1.1E7 cells; assay type: cell-based, human; settings: 2 mmol/l 5-thioglucose, tested at 1.1 and 16.7 mmol/l glucose
Method: as §4

1.1E7 cells [9] = experiment: Glucose oxidation from D-[U-14C]glucose, 1.1E7 cells; assay type: cell-based, human; settings: 2 mmol/l 5-thioglucose
Method: (§5) A modification of the method developed by Keen et al. (1963) was used to determine oxidative glucose metabolism to CO2. In principle, the method involves incubation of cells in specially designed glass cups suspended inside standard counting vials with an airtight rubber stopper. A disc of filter paper (Whatman No. 1) was placed on the base of the counting vial. For each sample, 2.0×10^5 cells were incubated in the presence of either 1.1, 5.6, 11.1, 16.7 mmol/l glucose and D-[U-^14C] glucose to give a final concentration of […] (40 μl total volume). Effect of 2 mmol/l 5-thioglucose were also tested in 1.1 and 16.7 mmol/l glucose Blanks were set up where the cells were omitted and replaced with KRBB to give a final concentration of either 1.1 or 16.7 mmol/l glucose. Standards consisted of ^14C-labelled glucose (0.5 μCi) added to the filter paper at the base of the counting vial. The glass vials were sealed with the rubber caps and placed at 37° C. for one hour. The reaction was stopped by the addition of 0.2M HCl ([…]) injected through the rubber cap directly into the centre well using a Hamilton syringe. Phenylethylamine (PEA) was added (100 μl) through the sealed lid onto the filter paper at the base of the vial. Care was taken to avoid contamination of the centre well with PEA. […] Vials were capped and ^14C-glucose labelled radioactivity determined by scintillation counter.

1.1B4 cells [10] = experiment: Glucose oxidation from D-[U-14C]glucose, 1.1B4 cells; assay type: cell-based, human; settings: 2 mmol/l 5-thioglucose
Method: as §5

Hup-T3 cells [11] = experiment: Glucose oxidation from D-[U-14C]glucose, Hup-T3 cells; assay type: cell-based, human; settings: 2 mmol/l 5-thioglucose, tested at 1.1 and 16.7 mmol/l glucose
Method: as §5

1.1B4 cells [12] = experiment: Glucose utilisation from [5-3H]glucose, 1.1B4 cells; assay type: cell-based, human; settings: 2 mmol/l 5-thioglucose
Method: as §4

PANC-1 cells [13] = experiment: Glucose oxidation from D-[U-14C]glucose, PANC-1 cells; assay type: cell-based, human; settings: 2 mmol/l 5-thioglucose, tested at 1.1 and 16.7 mmol/l glucose
Method: as §5

1.2B4 cells [14] = experiment: Glucose utilisation from [5-3H]glucose, 1.2B4 cells; assay type: cell-based, human; settings: 2 mmol/l 5-thioglucose, tested at 1.1 and 16.7 mmol/l glucose
Method: as §4

Hup-T3 cells [15] = experiment: Glucose utilisation from [5-3H]glucose, Hup-T3 cells; assay type: cell-based, human; settings: 2 mmol/l 5-thioglucose, tested at 1.1 and 16.7 mmol/l glucose
Method: as §4

1.2B4 cells [16] = experiment: Glucose oxidation from D-[U-14C]glucose, 1.2B4 cells; assay type: cell-based, human; settings: 2 mmol/l 5-thioglucose, tested at 1.1 and 16.7 mmol/l glucose
Method: as §5

1.4E7 cells [17] = experiment: Glucose oxidation from D-[U-14C]glucose, 1.4E7 cells; assay type: cell-based, human; settings: 2 mmol/l 5-thioglucose
Method: as §5

[18] = 2 mmol/l 5-thioglucose, 0 to 11.1 mmol/l glucose
[19] = tested at 1.1 and 16.7 mmol/l glucose
[20] = all four cell lines, 16.7 mmol/l glucose
[21] = 200 μmol/ IBMX, glucose 0 to 16.7 mmol/l

C[C@H](N)C(=O)O [alanine, L-alanine]
increase of insulin secretion [1]: Significant effects | insulin secretion at 11.1 mmol/l glucose [2]: induced insulin secretion | insulin secretory response at 11.1 mmol/l glucose compared with 5.6 mmol/l [3]: significantly greater | insulin release at 11.1 mmol/l glucose [4]: significant increases in insulin release | insulin secretion at 11.1 mmol/l glucose [5]: induced insulin secretion

O=C[C@H](O)[C@@H](O)[C@H](O)[C@H](S)CO [5-thioglucose]
effect of 5-thioglucose on glucose utilisation (PANC-1 cells [6]): inhibit utilisation only at this concentration | effect of 5-thioglucose on glucose utilisation (1.4E7 cells [7]): unaffected | effect of 5-thioglucose on glucose utilisation (1.1E7 cells [8]): only affected utilisation at 16.7 mmol/l | ratio of glucose oxidation:glucose utilisation on addition of 5-thioglucose (1.1E7 cells [9]): significant increase in ratio | lowering of insulin output by 5-thioglucose [1, 18]: 20-50% and 20 to 50% | ratio of glucose oxidation:glucose utilisation on addition of 5-thioglucose (1.1B4 cells [10]): significant increase in ratio | effect of 5-thioglucose on glucose oxidation (1.1B4 cells [10]; [19]): inhibit the oxidation of glucose at both 1.1 mmol/l and 16.7 mmol/l glucose; also recorded: only marginally inhibited | effect of 5-thioglucose on glucose oxidation (Hup-T3 cells [11]): able to inhibit oxidation at both 1.1 and 16.7 mmol/l glucose | effect of 5-thioglucose on insulin output and glucose responsiveness ([2]; 2 mmol/l 5-thioglucose): least affected; also recorded: not affected | effect of 5-thioglucose on glucose utilisation (1.1B4 cells [12]; 1.1 mmol/l glucose): did not affect | effect of 5-thioglucose on glucose utilisation (1.1B4 cells [12]; 16.7 mmol/l glucose): reduce utilisation | effect of 5-thioglucose on glucose oxidation (PANC-1 cells [13]): significant inhibition of oxidation at both 1.1 and 16.7 mmol/l | lowering of insulin output by 5-thioglucose [3, 18]: 20-50% and 20 to 50% | threshold glucose concentration for stimulation of insulin release in the presence of the agent [3]: 5.6 mmol/L | effect of 5-thioglucose on responsiveness to increasing glucose concentrations ([4]; all four cell lines, 2 mmol/l 5-thioglucose): improved; also recorded: caused a shift | effect of 5-thioglucose on glucose utilisation (1.2B4 cells [14]): had no affect | effect of 5-thioglucose on glucose utilisation (Hup-T3 cells [15]): did not inhibit | effect of 5-thioglucose on glucose oxidation (1.2B4 cells [16]): inhibited oxidation at 16.7 mmol/l | glucose-stimulated insulin release in the presence of 5-thioglucose ([5]; 2 mmol/l 5-thioglucose): became apparent | lowering of insulin output by 5-thioglucose [5, 18]: 20-50% and 20 to 50% | ratio of glucose oxidation:glucose utilisation on addition of 5-thioglucose (1.4E7 cells [17]): significant increase in ratio | effect of 5-thioglucose on glucose oxidation (1.4E7 cells [17]; [19]): clearly inhibiting oxidation at both 1.1 and 16.7

CC(C)CC(=O)C(=O)O [KIC]
insulin secretion at 11.1 mmol/l glucose [2]: induced insulin secretion | insulin secretory response at 11.1 mmol/l glucose compared with 5.6 mmol/l [3]: significantly greater | insulin release at 11.1 mmol/l glucose [4]: significant increases in insulin release | insulin secretion at 11.1 mmol/l glucose [5]: induced insulin secretion

CCCCNC(=O)NS(=O)(=O)c1ccc(C)cc1 [tolbutamide]
increase of the effect on raising glucose from 5.6 mmol/l to 11.1 mmol/l [1]: 20% | insulin release from the novel cell lines [4]: provoked insulin release

O=CC(O)CO (stereo not shown) [glyceraldehyde]
insulin release from the novel cell lines [4]: significantly stimulate

CC1=NS(=O)(=O)c2cc(Cl)ccc2N1 [Diazoxide, diazoxide]
inhibition at 400 µM ([4]; Homo sapiens, all four cell lines, 16.7 mmol/l glucose, diazoxide 400 μmol/l, EGTA in Ca2+-free buffer, read-out: inhibition of insulin release): 20 to 50% | insulin output at 16.7 mmol/l glucose [4, 20]: significantly reduced

N=C(N)NCCC[C@H](N)C(=O)O [arginine, L-arginine]
increase of the effect on raising glucose from 5.6 mmol/l to 11.1 mmol/l [1]: 17% | insulin secretory response at 11.1 mmol/l glucose compared with 5.6 mmol/l [3]: significantly greater | insulin secretion at non-stimulatory glucose ([4]; each cell line, 5.6 mmol/l glucose): significantly stimulated | insulin release at 11.1 mmol/l glucose [4]: significant increases in insulin release

O=C(O)CN(CCOCCOCCN(CC(=O)O)CC(=O)O)CC(=O)O [EGTA]
insulin output at 16.7 mmol/l glucose [4, 20]: significantly inhibited

isobutylmethylxanthine [IBMX]
increase of secretory response to glucose by IBMX [1, 21]: 20 to 100% and 20 to 60% | stimulation of secretory response with IBMX [1, 21]: 1.3-2 fold | insulin secretion with IBMX in the absence of glucose ([1]; absence of glucose): modestly enhanced | increase of secretory response to glucose by IBMX [2, 21]: 20 to 100% and 20 to 60% | stimulation of secretory response with IBMX [2, 21]: 1.3-2 fold | insulin secretion with IBMX in the absence of glucose ([2]; absence of glucose): modestly enhanced | increase of secretory response to glucose by IBMX [3, 21]: 20 to 100% and 20 to 60% | stimulation of secretory response with IBMX [3, 21]: 1.3-2 fold | threshold glucose concentration for stimulation of insulin release in the presence of the agent [3]: 5.6 mmol/L | effect of IBMX on insulin released ([5]; 200 μmol/ IBMX): did not significantly affect; also recorded: insensitive

COc1ccc(Cl)cc1C(=O)NCCc1ccc(S(=O)(=O)NC(=O)NC2CCCCC2)cc1 [glibenclamide]
insulin release from the novel cell lines [4]: provoked insulin release

COc1ccc(CCN(C)CCCC(C#N)(c2ccc(OC)c(OC)c2)C(C)C)cc1OC (stereo not shown) [verapamil]
insulin output at 16.7 mmol/l glucose [4, 20]: similarly reduced

[Cl-].[K+] [KCl]
secretory responsiveness at passage 40 ([4]; all four cell lines, passage 40 vs 17): maintain responsiveness | insulin release from the novel cell lines [4]: provoked insulin release

CC(C)C[C@H](N)C(=O)O [leucine, L-leucine]
increase of the effect on raising glucose from 5.6 mmol/l to 11.1 mmol/l [1]: 30% | increase of insulin secretion [1]: Significant effects | insulin secretion at 11.1 mmol/l glucose [2]: induced insulin secretion | insulin secretory response at 11.1 mmol/l glucose compared with 5.6 mmol/l [3]: significantly greater | insulin release at 11.1 mmol/l glucose [4]: significant increases in insulin release | insulin secretion at 11.1 mmol/l glucose [5]: induced insulin secretion

— patent US20040005702A1, “Insulin producing cell-line” (priority 2000, published 2004)
